Like-named read-outs stand apart in the source and are kept apart here.

In patent US20230079819A1, “COMPOUNDS AND USES THEREOF” (Foghorn Therapeutics Inc., priority 2019, published 2023) one finds IC50 data, which are given here for 31 molecules.

For assay [1], the target named is T1, BRM (Homo sapiens, UniProt P51531).
T1 construct: made in house; host or cells: High Five insect cells
In words: ATPase catalytic activity of BRM, ADP-Glo in vitro biochemical assay. The conditions noted are these: ATPase catalytic activity, 30 nM BRM, 400 μM ATP.

The target of assay [2] is T2, BRG-1 (Homo sapiens, UniProt P51532).
T2 construct: made in house; host or cells: High Five insect cells
T2 sequence (P51532 whole entry): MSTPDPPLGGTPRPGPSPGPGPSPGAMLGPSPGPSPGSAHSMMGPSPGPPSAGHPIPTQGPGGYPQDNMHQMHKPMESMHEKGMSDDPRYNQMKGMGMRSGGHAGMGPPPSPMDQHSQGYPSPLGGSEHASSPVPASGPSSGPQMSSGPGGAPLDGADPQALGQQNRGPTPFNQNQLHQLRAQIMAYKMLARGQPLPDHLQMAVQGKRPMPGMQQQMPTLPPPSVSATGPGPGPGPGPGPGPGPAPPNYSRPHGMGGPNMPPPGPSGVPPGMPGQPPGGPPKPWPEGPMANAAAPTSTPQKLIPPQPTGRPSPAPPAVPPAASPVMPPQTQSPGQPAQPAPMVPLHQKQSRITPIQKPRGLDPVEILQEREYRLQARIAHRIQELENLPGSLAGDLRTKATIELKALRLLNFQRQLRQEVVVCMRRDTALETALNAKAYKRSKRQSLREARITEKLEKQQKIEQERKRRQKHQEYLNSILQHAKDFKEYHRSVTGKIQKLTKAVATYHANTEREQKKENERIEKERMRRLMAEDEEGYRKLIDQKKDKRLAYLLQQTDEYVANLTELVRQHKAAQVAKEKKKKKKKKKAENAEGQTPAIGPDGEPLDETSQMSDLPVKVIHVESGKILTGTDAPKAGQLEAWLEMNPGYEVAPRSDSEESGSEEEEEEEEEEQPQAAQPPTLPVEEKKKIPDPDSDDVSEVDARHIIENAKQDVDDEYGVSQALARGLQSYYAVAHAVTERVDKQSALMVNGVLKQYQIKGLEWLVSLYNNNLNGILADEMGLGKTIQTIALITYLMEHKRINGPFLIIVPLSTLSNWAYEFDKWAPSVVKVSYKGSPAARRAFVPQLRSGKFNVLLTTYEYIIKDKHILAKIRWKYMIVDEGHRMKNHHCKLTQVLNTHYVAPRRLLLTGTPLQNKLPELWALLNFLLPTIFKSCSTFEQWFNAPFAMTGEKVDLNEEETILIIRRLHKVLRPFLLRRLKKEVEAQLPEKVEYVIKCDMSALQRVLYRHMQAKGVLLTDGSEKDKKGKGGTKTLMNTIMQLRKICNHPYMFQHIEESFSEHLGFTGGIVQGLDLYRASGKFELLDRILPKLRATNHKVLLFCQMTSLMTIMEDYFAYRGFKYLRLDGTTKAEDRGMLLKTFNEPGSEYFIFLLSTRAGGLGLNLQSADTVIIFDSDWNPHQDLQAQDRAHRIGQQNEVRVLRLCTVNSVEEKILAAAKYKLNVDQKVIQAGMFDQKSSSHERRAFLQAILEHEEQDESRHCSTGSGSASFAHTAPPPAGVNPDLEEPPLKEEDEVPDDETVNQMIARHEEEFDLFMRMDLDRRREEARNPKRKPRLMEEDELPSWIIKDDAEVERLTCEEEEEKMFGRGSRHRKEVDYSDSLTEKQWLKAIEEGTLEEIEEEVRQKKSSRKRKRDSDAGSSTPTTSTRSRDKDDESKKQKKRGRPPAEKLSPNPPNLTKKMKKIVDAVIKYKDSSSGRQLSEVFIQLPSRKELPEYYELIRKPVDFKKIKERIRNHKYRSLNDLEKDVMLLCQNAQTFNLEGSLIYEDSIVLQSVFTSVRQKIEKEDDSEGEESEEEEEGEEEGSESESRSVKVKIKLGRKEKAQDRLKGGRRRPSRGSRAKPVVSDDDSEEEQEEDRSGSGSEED
The assay can be described thus: ATPase catalytic activity of BRG-1, ADP-Glo in vitro biochemical assay. Particulars: ATPase catalytic activity, 30 nM BRG-1, 400 μM ATP.

T1 sequence (P51531 whole entry): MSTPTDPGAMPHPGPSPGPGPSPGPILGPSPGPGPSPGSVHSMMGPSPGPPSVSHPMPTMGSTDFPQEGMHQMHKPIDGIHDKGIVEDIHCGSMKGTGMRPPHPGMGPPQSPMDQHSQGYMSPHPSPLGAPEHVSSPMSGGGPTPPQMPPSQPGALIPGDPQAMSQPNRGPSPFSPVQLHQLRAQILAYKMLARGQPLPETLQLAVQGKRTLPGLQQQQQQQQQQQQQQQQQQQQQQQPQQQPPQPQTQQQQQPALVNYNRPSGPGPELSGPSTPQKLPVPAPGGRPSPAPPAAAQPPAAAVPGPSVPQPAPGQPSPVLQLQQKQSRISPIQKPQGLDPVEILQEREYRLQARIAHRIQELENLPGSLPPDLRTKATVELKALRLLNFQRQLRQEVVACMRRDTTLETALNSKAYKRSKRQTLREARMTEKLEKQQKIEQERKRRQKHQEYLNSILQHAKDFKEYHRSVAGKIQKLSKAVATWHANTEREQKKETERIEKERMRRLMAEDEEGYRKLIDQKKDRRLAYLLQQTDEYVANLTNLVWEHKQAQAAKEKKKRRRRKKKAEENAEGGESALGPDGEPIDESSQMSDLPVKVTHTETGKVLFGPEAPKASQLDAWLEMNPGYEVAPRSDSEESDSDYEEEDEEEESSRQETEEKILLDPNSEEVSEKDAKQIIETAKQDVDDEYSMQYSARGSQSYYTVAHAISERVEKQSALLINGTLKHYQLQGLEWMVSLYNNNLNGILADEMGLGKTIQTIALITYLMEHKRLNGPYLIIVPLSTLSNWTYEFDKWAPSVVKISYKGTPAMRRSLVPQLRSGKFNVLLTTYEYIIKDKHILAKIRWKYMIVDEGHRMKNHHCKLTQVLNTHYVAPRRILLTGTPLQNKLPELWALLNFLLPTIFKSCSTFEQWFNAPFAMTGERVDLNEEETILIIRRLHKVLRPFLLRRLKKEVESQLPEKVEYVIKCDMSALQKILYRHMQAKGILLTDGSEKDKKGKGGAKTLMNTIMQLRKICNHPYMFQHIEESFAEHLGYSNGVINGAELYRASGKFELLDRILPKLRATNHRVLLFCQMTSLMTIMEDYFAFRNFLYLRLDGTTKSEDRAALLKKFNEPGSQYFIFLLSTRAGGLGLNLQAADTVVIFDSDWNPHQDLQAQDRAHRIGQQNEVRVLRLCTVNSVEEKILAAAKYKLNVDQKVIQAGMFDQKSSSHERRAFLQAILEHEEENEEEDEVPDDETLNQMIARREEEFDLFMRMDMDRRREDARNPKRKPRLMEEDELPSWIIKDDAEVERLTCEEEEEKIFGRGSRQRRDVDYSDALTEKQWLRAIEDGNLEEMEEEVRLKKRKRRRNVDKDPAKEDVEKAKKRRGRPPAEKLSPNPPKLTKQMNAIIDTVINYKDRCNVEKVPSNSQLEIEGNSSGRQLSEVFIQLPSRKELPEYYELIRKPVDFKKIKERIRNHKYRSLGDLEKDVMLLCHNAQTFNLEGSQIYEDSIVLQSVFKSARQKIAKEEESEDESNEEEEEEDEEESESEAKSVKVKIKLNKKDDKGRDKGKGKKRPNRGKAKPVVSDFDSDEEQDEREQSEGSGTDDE

As to `CO[C@@H]1CN(c2cccc(-c3csc(NC(=O)CNC(=O)c4ccn(S(C)(=O)=O)c4)n3)c2)CC[C@@H]1O` (racemic) [Compound 158], the IC50 in assay [1] (read-out: BRM IP50 (μM)*) and in assay [2] (read-out: BRG1 IP50 (μM)*) was above 0.01 µM each time.

For the molecule `C[C@H]1C[C@H](C)CN(c2cccc(-c3csc(NC(=O)CNC(=O)c4ccn(S(C)(=O)=O)c4)n3)c2)C1` (racemic) [Compound 187], the IC50 in assay [1] (read-out: BRM IP50 (μM)*) and in assay [2] (read-out: BRG1 IP50 (μM)*) was above 0.01 µM throughout.

As for `CO[C@@H]1CN(c2cccc(-c3csc(NC(=O)CNC(=O)c4ccn(S(C)(=O)=O)c4)n3)c2)C[C@H]1OC` (racemic) [Compound 198], the IC50 in assay [1] (read-out: BRM IP50 (μM)*) and in assay [2] (read-out: BRG1 IP50 (μM)*) was above 0.01 µM throughout.

Turning to `CO[C@H]1CN(c2cccc(-c3csc(NC(=O)CNC(=O)c4ccn(C(C)(C)C)c4)n3)n2)CC[C@@H]1O` (racemic) [Compound 310], the IC50 was above 0.01 µM in assay [1] (read-out: BRM IP50 (μM)*) and above 0.1 µM in assay [2] (read-out: BRG1 IP50 (μM)*).

For the molecule `C[C@@H]1CC(c2cccc(-c3csc(NC(=O)CNC(=O)c4ccn(S(C)(=O)=O)c4)n3)n2)=C[C@H](C)O1` (racemic) [Compound 350, N-(2-((4-(6-((cis)-2,6-dimethyl-3,6-dihydro-2H-pyran-4-yl)pyridin-2-yl)thiazol-2-yl)amino)-2-oxoethyl)-1-(methylsulfonyl)-1H-pyrrole-3-carboxamide], the IC50 in assay [1] (read-out: BRM IP50 (μM)*) and in assay [2] (read-out: BRG1 IP50 (μM)*) was below 0.01 µM in each case.

Turning to `C[C@@H]1CC(c2cccc(-c3csc(NC(=O)CNC(=O)c4ccn(S(C)(=O)=O)c4)n3)c2)=C[C@H](C)O1` (racemic) [Compound 391], the IC50 in assay [1] (read-out: BRM IP50) and in assay [2] (read-out: BRG1 IP50) was below 0.01 µM in each case.

Consider `CS(=O)(=O)n1ccc(C(=O)NCC(=O)Nc2nc(-c3cccc([C@@H]4CCCCO4)c3)cs2)c1` (racemic) [Compound 392], for which the IC50 in assay [1] (read-out: BRM IP50) and in assay [2] (read-out: BRG1 IP50) was above 0.01 µM throughout.

Regarding `CS(=O)(=O)n1ccc(C(=O)NCC(=O)Nc2nc(-c3cccc(N4C[C@H]5C[C@@H]4C[C@H]5O)c3)cs2)c1` (racemic) [Compound 468], the IC50 in assay [1] (read-out: BRM IP50) and in assay [2] (read-out: BRG1 IP50) was above 0.1 µM in each case.

With `CS(=O)(=O)n1ccc(C(=O)NCC(=O)Nc2nc(-c3cccc(N4C[C@H]5C[C@@H]4C[C@@H]5O)c3)cs2)c1` (racemic) [Compound 500], the IC50 in assay [1] (read-out: BRM IP50) is above 0.01 µM; in assay [2] (read-out: BRG1 IP50) it was above 0.1 µM.

In the case of `C[C@@H]1CO[C@@H]2CN(c3cccc(-c4csc(NC(=O)CNC(=O)c5ccn(C(C)(C)C)c5)n4)n3)C[C@H]12` (racemic) [Compound 649], the IC50 in assay [1] (read-out: BRM IP50) and in assay [2] (read-out: BRG1 IP50) was above 0.01 µM each time.

For the molecule `CC(C)(C)n1ccc(C(=O)NCC(=O)Nc2nc(-c3cccc(N4CC[C@@H]5CCO[C@H]5C4)n3)cs2)c1` (racemic) [Compound 650], the results for the IC50 in assay [1] (read-out: BRM IP50) and in assay [2] (read-out: BRG1 IP50) were above 0.01 µM and above 0.1 µM, respectively.

In the case of `C[C@@H]1CCN(c2cccc(-c3csc(NC(=O)CNC(=O)c4ccn(C(C)(C)C)c4)n3)n2)C[C@H]1F` (racemic) [Compound 702, 1-tert-butyl-N-[2-[[4-[6-[(3S,4R)-3-fluoro-4-methyl-1-piperidyl]-2-pyridyl]thiazol-2-yl]amino]-2-oxo-ethyl]pyrrole-3-carboxamide], the IC50 in assay [1] (read-out: BRM IP50) is above 0.01 µM; in assay [2] (read-out: BRG1 IP50), above 0.1 µM.

Regarding `CC(C)(C)n1ccc(C(=O)NCC(=O)Nc2nc(-c3cccc(N4C[C@H]5CC(F)(F)[C@H]5C4)n3)cs2)c1` (racemic) [Compound 703], the IC50 in assay [1] (read-out: BRM IP50) and in assay [2] (read-out: BRG1 IP50) was above 0.1 µM throughout.

For `C[C@@H]1CN(c2cccc(-c3csc(NC(=O)CNC(=O)c4ccn(C(C)(C)C)c4)n3)n2)C[C@@H]1F` (racemic) [Compound 724], the IC50 in assay [1] (read-out: BRM IP50) and in assay [2] (read-out: BRG1 IP50) was above 0.01 µM in each case.

As to `C[C@@H]1CN(c2cccc(-c3csc(NC(=O)CNC(=O)c4ccn([C@]5(C)CCOC5)c4)n3)n2)C[C@H](C)O1` (single isomer, unassigned) [Compound 490], the figures for the IC50 in assay [1] (read-out: BRM IP50) and in assay [2] (read-out: BRG1 IP50) were above 0.01 µM and above 0.1 µM, respectively.

For `C[C@@H]1CN(c2cccc(-c3csc(NC(=O)CNC(=O)c4ccn([C@@]5(C)CCOC5)c4)n3)n2)C[C@H](C)O1` (single isomer, unassigned) [Compound 491], the IC50 in assay [1] (read-out: BRM IP50) and in assay [2] (read-out: BRG1 IP50) was above 0.01 µM each time.

On to `CN(C)Cc1cc(-c2cccc(-c3csc(NC(=O)CNC(=O)c4ccn(S(C)(=O)=O)c4)n3)c2)ccn1` [Compound 1, N-(2-((4-(3-(2-((dimethylamino)methyl)pyridin-4-yl)phenyl)thiazol-2-yl)amino)-2-oxoethyl)-1-(methylsulfonyl)-1H-pyrrole-3-carboxamide], for which the IC50 in assay [1] (read-out: BRM IP50 (μM)*) and in assay [2] (read-out: BRG1 IP50 (μM)*) was below 0.01 µM each time.

As to `CC(C)n1ccc(C(=O)NCC(=O)Nc2nc(-c3cccc(-c4ccn(C)n4)c3)cs2)c1` [Compound 2, 1-isopropyl-N-(2-((4-(3-(1-methyl-1H-pyrazol-3-yl)phenyl)thiazol-2-yl)amino)-2-oxoethyl)-1H-pyrrole-3-carboxamide], the IC50 in assay [1] (read-out: BRM IP50 (μM)*) and in assay [2] (read-out: BRG1 IP50 (μM)*) was above 0.01 µM each time.

For the molecule `CC(C)(C)n1cnc(C(=O)NCC(=O)Nc2nc(-c3cccc(C#N)c3)cs2)c1` [Compound 3, 1-(tert-butyl)-N-(2-((4-(3-cyanophenyl)thiazol-2-yl)amino)-2-oxoethyl)-1H-imidazole-4-carboxamide], the IC50 in assay [1] (read-out: BRM IP50 (μM)*) and in assay [2] (read-out: BRG1 IP50 (μM)*) was above 1 µM in each case.

In the case of `CS(=O)(=O)n1ccc(C(=O)NCC(=O)Nc2nc(-c3cnn(-c4ccncc4)c3)cs2)c1` [Compound 6, 1-(methylsulfonyl)-N-(2-oxo-2-((4-(1-(pyridin-4-yl)-1H-pyrazol-4-yl)thiazol-2-yl)amino)ethyl)-1H-pyrrole-3-carboxamide], the IC50 in assay [1] (read-out: BRM IP50 (μM)*) and in assay [2] (read-out: BRG1 IP50 (μM)*) was above 0.1 µM each time.

In the case of `CN1CCc2ccc(-c3csc(NC(=O)CNC(=O)c4ccn(C(C)(C)C)c4)n3)cc2C1=O` [Compound 7, 1-(tert-butyl)-N-(2-((4-(2-methyl-1-oxo-1,2,3,4-tetrahydroisoquinolin-7-yl)thiazol-2-yl)amino)-2-oxoethyl)-1H-pyrrole-3-carboxamide], the IC50 in assay [1] (read-out: BRM IP50 (μM)*) and in assay [2] (read-out: BRG1 IP50 (μM)*) was above 0.01 µM each time.

Consider `CC(C)(O)Cn1ccc(-c2cccc(-c3csc(NC(=O)CNC(=O)c4ccn(C(C)(C)C)c4)n3)c2)n1` [Compound 8, 1-(tert-butyl)-N-(2-((4-(3-(1-(2-hydroxy-2-methylpropyl)-1H-pyrazol-3-yl)phenyl)thiazol-2-yl)amino)-2-oxoethyl)-1H-pyrrole-3-carboxamide], for which the IC50 in assay [1] (read-out: BRM IP50 (μM)*) and in assay [2] (read-out: BRG1 IP50 (μM)*) was above 0.01 µM throughout.

Take `CS(=O)(=O)n1ccc(C(=O)NCC(=O)Nc2nc(-c3cccc(-c4ccnc(N)c4)c3)cs2)c1` [Compound 9, N-(2-((4-(3-(2-aminopyridin-4-yl)phenyl)thiazol-2-yl)amino)-2-oxoethyl)-1-(methylsulfonyl)-1H-pyrrole-3-carboxamide]: the IC50 in assay [1] (read-out: BRM IP50 (μM)*) and in assay [2] (read-out: BRG1 IP50 (μM)*) was below 0.01 µM throughout.

On to `C[C@@H]1CN(c2cccc(-c3csc(NC(=O)CNC(=O)c4ccn(S(C)(=O)=O)c4)n3)c2)C[C@H](C)O1` [Compound 10], for which the IC50 in assay [1] (read-out: BRM IP50 (μM)*) and in assay [2] (read-out: BRG1 IP50 (μM)*) was below 0.01 µM each time.

With `CO[C@H]1CCCN(c2cccc(-c3csc(NC(=O)CNC(=O)c4ccn(S(C)(=O)=O)c4)n3)c2)C1` [Compound 11, (S)—N-(2-((4-(3-(3-methoxypiperidin-1-yl)phenyl)thiazol-2-yl)amino)-2-oxoethyl)-1-(methylsulfonyl)-1H-pyrrole-3-carboxamide], the IC50 in assay [1] (read-out: BRM IP50 (μM)*) and in assay [2] (read-out: BRG1 IP50 (μM)*) was above 0.01 µM each time.

On to `Cn1c(=O)ccc2ccc(-c3csc(NC(=O)CNC(=O)c4ccn(S(C)(=O)=O)c4)n3)cc21` [Compound 12, N-(2-((4-(1-methyl-2-oxo-1,2-dihydroquinolin-7-yl)thiazol-2-yl)amino)-2-oxoethyl)-1-(methylsulfonyl)-1H-pyrrole-3-carboxamide], for which the IC50 in assay [1] (read-out: BRM IP50 (μM)*) and in assay [2] (read-out: BRG1 IP50 (μM)*) was above 0.01 µM throughout.

Take `CN(C)C(=O)CN(C)c1cc(-c2cccc(-c3csc(NC(=O)CNC(=O)c4ccn(S(C)(=O)=O)c4)n3)c2)ccn1` [Compound 13, N-(2-((4-(3-(2-((2-(dimethylamino)-2-oxoethyl)(methyl)amino)pyridin-4-yl)phenyl)thiazol-2-yl)amino)-2-oxoethyl)-1-(methylsulfonyl)-1H-pyrrole-3-carboxamide]: the IC50 in assay [1] (read-out: BRM IP50 (μM)*) and in assay [2] (read-out: BRG1 IP50 (μM)*) was above 0.01 µM in each case.

Consider `CS(=O)(=O)n1ccc(C(=O)NCC(=O)Nc2nc(-c3cccc(-c4ccnc(C5(C(=O)O)CC5)c4)c3)cs2)c1` [Compound 14, 1-(4-(3-(2-(2-(1-(methylsulfonyl)-1H-pyrrole-3-carboxamido)acetamido)thiazol-4-yl)phenyl)pyridin-2-yl)cyclopropanecarboxylic acid], for which the IC50 in assay [1] (read-out: BRM IP50 (μM)*) and in assay [2] (read-out: BRG1 IP50 (μM)*) was below 0.01 µM throughout.

In the case of `CN(CC(=O)O)c1cc(-c2cccc(-c3csc(NC(=O)CNC(=O)c4ccn(S(C)(=O)=O)c4)n3)c2)ccn1` [Compound 15, 2-(methyl(4-(3-(2-(2-(1-(methylsulfonyl)-1H-pyrrole-3-carboxamido)acetamido)thiazol-4-yl)phenyl)pyridin-2-yl)amino)acetic acid], the IC50 in assay [1] (read-out: BRM IP50 (μM)*) and in assay [2] (read-out: BRG1 IP50 (μM)*) was below 0.01 µM in each case.

Take `CNC(=O)CN(C)c1cc(-c2cccc(-c3csc(NC(=O)CNC(=O)c4ccn(S(C)(=O)=O)c4)n3)c2)ccn1` [Compound 16, N-(2-((4-(3-(2-(methyl(2-(methylamino)-2-oxoethyl)amino)pyridin-4-yl)phenyl)thiazol-2-yl)amino)-2-oxoethyl)-1-(methylsulfonyl)-1H-pyrrole-3-carboxamide]: the IC50 in assay [1] (read-out: BRM IP50 (μM)*) and in assay [2] (read-out: BRG1 IP50 (μM)*) was below 0.01 µM in each case.

Take `Cc1nc(-c2cccc(-c3csc(NC(=O)CNC(=O)c4ccn(S(C)(=O)=O)c4)n3)c2)c[nH]1` [Compound 17]: the IC50 in assay [1] (read-out: BRM IP50 (μM)*) and in assay [2] (read-out: BRG1 IP50 (μM)*) was above 0.01 µM each time.
